Assay results from publication PMC4982760, “Small-molecule inhibitors identify the RAD52-ssDNA interaction as critical for recovery from replication stress and for survival of BRCA2 deficient cells” (eLife, 2016).
Counter-ions that a name gives are not always drawn. Like-named read-outs stand apart in the source and are kept apart here.

Experiments:
[1] = target: T1, RAD52-mediated ssDNA annealing (Homo sapiens, UniProt P43351); experiment: FRET-based RAD52-mediated ssDNA annealing assay; type: biochemical
T1 construct: made in house
T1 sequence (P43351 1-418): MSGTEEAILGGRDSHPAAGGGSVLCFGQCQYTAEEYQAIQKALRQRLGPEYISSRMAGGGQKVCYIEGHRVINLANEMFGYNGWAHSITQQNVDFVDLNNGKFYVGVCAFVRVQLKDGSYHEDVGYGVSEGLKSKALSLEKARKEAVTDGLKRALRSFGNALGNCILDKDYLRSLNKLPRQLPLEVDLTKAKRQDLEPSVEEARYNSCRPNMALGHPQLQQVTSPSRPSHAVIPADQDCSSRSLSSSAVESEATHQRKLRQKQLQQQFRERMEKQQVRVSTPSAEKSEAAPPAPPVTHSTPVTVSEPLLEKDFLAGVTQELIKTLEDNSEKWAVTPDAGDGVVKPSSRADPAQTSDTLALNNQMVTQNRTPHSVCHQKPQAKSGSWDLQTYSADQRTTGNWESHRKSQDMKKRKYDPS
Description: To determine how the selected compounds affect the ssDNA annealing function of RAD52 we performed FRET-based annealing assays ([Grimme et al., 2010]; [Grimme and Spies, 2011]). These assays utilize two complementary single stranded 28-nucleotide-long substrates, which contain either Cy3 (T-28) or Cy5 (P-28) incorporated into the middle of the respective DNA strand. When the substrates are annealed by RAD52, the Cy3 and Cy5 dyes are separated by 3 base pairs and yield a high FRET signal (Figure 2—figure supplement 2). […] The annealing reactions were initiated by mixing two half reactions and observing the change in FRET over time in the presence of varying concentrations of small molecules. An increasing FRET value over time indicates the formation of the dsDNA duplex which brings the two dyes in close proximity (Figure 2—figure supplement 2). Fitting the annealing data to a double exponential allowed us to calculate and compare the final extent of annealing at varying concentrations of each compound compared to RAD52 alone. We plotted the final extent of annealing vs the concentration of the compound and calculated an IC50 of annealing inhibition. […] At the stoichiometric RAD52: dsDNA ratio, (1 nM dsDNA: 10 nM RAD52) the dsDNA is bent upon RAD52 binding, which allows us to distinguish the RAD52-bound and free dsDNA (Figure 2—figure supplement 1).
Annealing of complementary oligonucleotides by RAD52 was monitored under identical conditions as the binding assays described above. For each assay, the reaction master mixture containing 8 nM RAD52 protein in the presence and absence of the compounds at varying concentrations was prepared at room temperature and divided into two half reactions. Following baseline buffer and protein measurements, 0.5 nM of T-28 ssDNA substrate was added to the reaction cuvette and the signal was allowed to stabilize. The annealing reaction was initiated upon addition of the second half-reaction pre-incubated with 0.5 nM P-28 ssDNA substrate. The fluorescence of Cy3 and Cy5 were measured simultaneously over the reaction time course (500 s). FRETapp values were calculated as an average of three or more independent annealing reactions plotted against time (s). The average FRET values were fitted to a double exponential to calculate the final extent of annealing using Graphpad Prism4 software. The calculated annealing extent was plotted as a function of compound concentration and fitted to the same model as we used to determine IC50 values for the inhibition of DNA annealing.

RAD52-ssDNA interaction = target: T2, RAD52-ssDNA interaction (Homo sapiens, UniProt P43351); experiment: FRET-based ssDNA binding and wrapping assay (RAD52-Cy3-dT30-Cy5 complex); details: for IC50 range for inhibition of ssDNA binding, in words / FRET value at saturation: 1 nM Cy3-dT30-Cy5, 8 nM RAD52; for FRET value at saturation: ssDNA
T2 construct: made in house
T2 sequence (P43351 1-418): T1 sequence (P43351 1-418)
Procedure: We titrated increasing amounts of each compound into a cuvette containing preformed stoichiometric RAD52-Cy3-dT30-Cy5 complexes (1 nM Cy3-dT30-Cy5 and 8 nM RAD52). […] At each concentration of the compound, the FRET signal was adjusted for the change in Cy3 and Cy5 fluorescence in the presence of the compound, but in the absence of protein.
FRET-based ssDNA binding, dsDNA binding, and annealing assays were carried out as previously described ([Grimme et al., 2010]; [Grimme and Spies, 2011]) using Cary Eclipse spectrofluorimeter (Varian) at 25°C in buffer containing 30 mM Tris-Acetate pH7.5, 1 mM DTT, and 0.1 mg/mL BSA. Cy3 dye was excited at 530 nm and its emission was monitored at 565 nm. Emission of Cy5 acceptor fluorophore excited through the energy transfer from Cy3 donor is monitored at 660 nm simultaneously with emission of Cy3 dye. Both the excitation and the emission slit widths were set to 10 nm.
All experiments were performed in triplicates, and the data are shown as averages and standard deviations for three independent measurements. To remove possible experimental artifacts associated with chromogenic or fluorogenic compounds, as well as with the compounds that may quench or enhance Cy3 or Cy5 fluorescence, we also performed control titrations whereby we titrated each compound into 1 nM Cy3-dT30-Cy5 in the absence of RAD52. For each compound concentration we subtracted the difference in the FRET signal in the presence and absence of the compound from the respective FRET signal in the presence of RAD52. The FRET signal corrected for the compound fluorescence was calculated using the equation: FRETapp=4.2∗ICy5/4.2∗ICy5+ 1.7∗ICy3
as previously described ([Grimme et al., 2010]; [Grimme and Spies, 2011]) and plotted as a function of compound concentration and fitted to the following inhibition model” FRET([small molecule])=FRET0−FRETmin/1+10^(LogIC50−Log([small molecule])∗HillSlope),
where FRET0 is the initial FRET value of the RAD52-ssDNA complex in the absence of the compound and FRETmin is the FRET value at complete inhibition. FRET values were calculated as an average of three or more independent annealing reactions plotted against the concentration of the compound. Inhibition of the RAD52-dsDNA interaction was assayed in a similar experiments, except the stoichiometric complexes containing 1 nM molecules of Cy3-Oligo28-Cy5 duplex DNA and 10 nM RAD52.

[2] = 8 nM RAD52, 0.5 nM T-28 and 0.5 nM P-28, read-out: IC50 (Annealing extent), ssDNA
[3] = 1 nM Cy3-dT30-Cy5, 8 nM RAD52, 25°C, read-out: IC50 (DNA binding), ssDNA
[4] = read-out: IC50 (Annealing extent), ssDNA, 8 nM RAD52, 0.5 nM T-28 and 0.5 nM P-28

IC50 [1, 2] [µM]	IC50 range for inhibition of ssDNA binding, in words (RAD52-ssDNA interaction)	IC50 (RAD52-ssDNA interaction; [3]) [µM]	FRET value at saturation (RAD52-ssDNA interaction)	SMILES	IC50 [1, 4] [µM]	IC50 (RAD52-ssDNA interaction) [µM]	IC50 [1] [µM]
3.8 ± 0.2	micro-molar range	2 ± 0.17	0.47 ± 0.01	C=C1c2cccc(O)c2C(=O)C2=C(O)[C@]3(O)C(=O)C(C(N)=O)=C(O)[C@@H](N(C)C)[C@@H]3[C@@H](O)[C@H]12 [Compound 3, Methacycline Hydrochloride]			
20 ± 0.7	nano-molar range	0.255 ± 0.016	0.41 ± 0.004	O=C(O[C@@H]1Cc2c(O)cc(O)cc2O[C@@H]1c1ccc(O)c(O)c1)c1cc(O)c(O)c(O)c1 [Compound 5, (−)−Epicatechin gallate]			
> 100	micro-molar range	1.45 ± 0.11	0.51 ± 0.01	Oc1cc(O)c2c(c1)O[C@H](c1ccc(O)c(O)c1)[C@H](O)C2 [Compound 7, (−)−Epicatechin]			
5.6 ± 0.6	nano-molar range	0.563 ± 0.04	0.51 ± 0.01	O=C1c2ccc(O)c(O)c2C(=O)c2c(O)ccc(O)c21 [Compound 15, Quinalizarin]			
			0.50 ± 0.01	COc1cc(N)c(Cl)cc1C(=O)NC1CCN(CCCOc2ccc(F)cc2)CC1OC (centres unmarked) [Compound 16, Cisapride Monohydrate]			
> 100	high micro-molar range	> 800		C[C@H]1[C@H](C)CC[C@]2(C(=O)O)CC[C@]3(C)C(=CC[C@@H]4[C@@]5(C)C[C@@H](O)[C@H](O)[C@@](C)(CO)[C@@H]5CC[C@]43C)[C@H]12 [Compound 18, Asiatic Acid]			

SMILES	IC50 [1, 2] [µM]	IC50 range for inhibition of ssDNA binding, in words (RAD52-ssDNA interaction)	IC50 (RAD52-ssDNA interaction; [3]) [µM]	FRET value at saturation (RAD52-ssDNA interaction)	IC50 [1, 4] [µM]	IC50 (RAD52-ssDNA interaction) [µM]	IC50 [1] [µM]
CN(C)[C@@H]1C(O)=C(C(=O)NCN2CCCC2)C(=O)[C@@]2(O)C(O)=C3C(=O)c4c(O)cccc4[C@@](C)(O)[C@H]3C[C@@H]12 [Compound 4, Rolitetracycline]		mid micro-molar range		0.56 ± 0.04	> 100	29 ± 8.2	
NCCc1cc(O)c(O)cc1O [Compound 14, Oxidopamine]		nano-molar range		0.50 ± 0.01	> 100	0.779 ± 0.051	
CC1(C)C(=O)C=C[C@@]2(C)C1=C(O)C(=O)[C@]1(C)[C@@H]2CC[C@@]2(C)[C@H](c3ccoc3)C[C@H]3O[C@]321 [Compound 17, Cedrelone]	> 100	high micro-molar range	> 300				
O=c1c(O)c(-c2ccc(O)c(O)c2)oc2c(O)c(O)cc(O)c12 [Compound 19, Gossypetin]		nano-molar range		0.49 ± 0.01		0.913 ± 0.058	6 ± 2.3
